Here are results for one molecule from patent publication US12226480B2, “Combination drug including TLR7 agonist” (SUMITOMO PHARMA CO., LTD., priority 2017, dated 2025).

Assay [1] deals with effector memory T cell. The assay is described as follows: Ratio of effector memory T cell in CD8-positive tumor-infiltrating lymphocytes by FACS (anti-CTLA-4 study). The note with it: tumor on 26th day, CD8+ CD62L- CD127+, compared with the vehicle administration group, Compound 1 5 mg/kg iv, anti-CTLA-4 antibody 200 μg ip. In kind it is in vivo, Balb/c mice. On the procedure:
(§1) 1×10^6 Cells of murine colon cancer cell line CT26 (ATCC) were transplanted to the ventral flank of 40 female 6-week-old Balb/c mice. Seven days later, the mice were divided into four groups. In vehicle administration group, saline was intravenously administered once a week, and 200 μg of Rat IgG2a isotype control antibody (Bioxcell) was intraperitoneally administered twice a week. In Compound 1 administration group, Compound 1 was intravenously administered in a dose of 5 mg/kg once a week, and 200 μg of Rat IgG2a isotype control antibody (Bioxcell) was intraperitoneally administered twice a week. In anti-CTLA-4 antibody administration group, 200 μg of anti-CTLA-4 antibody (Bioxcell) was intraperitoneally administered twice a week. In combination group of Compound 1 and anti-CTLA-4 antibody, Compound 1 was intravenously administered in a dose of 5 mg/kg once a week, and 200 μg of anti-CTLA-4 antibody (Bioxcell) was intraperitoneally administered twice a week. After the transplantation of the tumor cell, the tumor was picked out on the 26th day, and a cell suspension of the tumor was prepared by using a tumor dissociation kit (Miltenyi) and a gentle macs dissociater (Miltenyi). […] The obtained cell suspension was stained with fluoresceinated anti-CD8, anti-CD62L, and anti-CD127 antibodies, and analyzed by flow cytometry (FACS) method. […]

Assay [2] has as its system murine colon cancer cell line CT26. Nature of the assay: Antitumor activity of combination use of anti-PD-1 antibody and TLR7 agonist (tumor volume). The assay is classed as in vivo. The settings on record: CT26 in Balb/c mice, until 23rd day; Compound 1 5 mg/kg iv once a week, anti-PD-1 antibody 200 μg ip twice a week; versus vehicle administration group. As to the method:
1×10^6 Cells of murine colon cancer cell line CT26 (ATCC) were transplanted to the ventral flank of 48 female 6-week-old Balb/c mice. Five days later, the mice were divided into four groups. In vehicle administration group, saline was intravenously administered once a week, and 200 μg of Rat IgG2a isotype control antibody (Bioxcell) was intraperitoneally administered twice a week. In TLR7 agonist administration group, a TLR7 agonist, N-{4-[(2-amino-4-{[(3S)-1-hydroxyhexan-3-yl]amino}-6-methylpyrimidin-5-yl)methyl]-3-methoxybenzyl}-N-(2,2,2-trifluoroethyl)glycine (hereinafter, referred to as “Compound 1”) was administered into a vein in a dose of 5 mg/kg once a week, and 200 μg of Rat IgG2a isotype control antibody (Bioxcell) was intraperitoneally administered twice a week. In anti-PD-1 antibody administration group, 200 μg of anti-PD-1 antibody (Bioxcell) was intraperitoneally administered twice a week. In combination group of Compound 1 and anti-PD-1 antibody, Compound 1 was intravenously administered in a dose of 5 mg/kg once a week, and 200 μg of anti-PD-1 antibody (Bioxcell) was intraperitoneally administered twice a week. After the transplantation of the tumor cell, the tumor volume was measured twice a week, and the body weight was checked once a week until the 23rd day. […]

In assay [3] the test system is effector memory T cell. Nature of the assay: Ratio of effector memory T cell in CD8-positive tumor-infiltrating lymphocytes by FACS (anti-PD-1 study). The settings on record: tumor on 23rd day, CD8+ CD62L- CD127+, compared with the vehicle administration group, Compound 1 5 mg/kg iv, anti-PD-1 antibody 200 μg ip. The assay is classed as in vivo, Balb/c mice. On the procedure: as §1, with “48” for “40”, “Five” for “Seven”, “anti-PD-1” for “anti-CTLA-4”, “23rd” for “26th”, “dissociates” for “dissociater”
In general terms: A flow cytometer gives signals particle by particle.

Assay [4] has as its system murine colon cancer cell line CT26. The assay is described as follows: Antitumor activity of combination use of anti-CTLA-4 antibody and TLR7 agonist (tumor volume). The note with it: CT26 in Balb/c mice, until 23rd day; Compound 1 5 mg/kg iv once a week, anti-CTLA-4 antibody 200 μg ip twice a week; versus vehicle administration group. In kind it is in vivo. On the procedure:
1×10^6 Cells of murine colon cancer cell line CT26 (ATCC) were transplanted to the ventral flank of 40 female 7-week-old Balb/c mice. Seven days later, the mice were divided into four groups. In vehicle administration group, saline was intravenously administered once a week, and 200 μg of Rat IgG2a isotype control antibody (Bioxcell) was intraperitoneally administered twice a week. In TLR7 agonist administration group, Compound 1 was intravenously administered in a dose of 5 mg/kg once a week, and 200 μg of Rat IgG2a isotype control antibody (Bioxcell) was intraperitoneally administered twice a week. In anti-CTLA-antibody administration group, 200 μg of anti-CTLA-4 antibody (Bioxcell) was intraperitoneally administered twice a week. In combination group of Compound 1 and anti-CTLA-4 antibody, Compound 1 was intravenously administered in a dose of 5 mg/kg once a week, and 200 μg of anti-CTLA-4 antibody (Bioxcell) was intraperitoneally administered twice a week. After the transplantation of the tumor cell, the tumor volume was measured twice a week, and the body weight was checked once a week until the 23rd day. The tumor volume was obtained by measuring long axis and short axis of the tumor and calculating by a math formula of (short axis)×(short axis)×(long axis)×0.5.
The ordinate denotes tumor volume, and the abscissa denotes elapsed days from the transplantation of the tumor cell.

A further assay deals with MHC class I (H-2Kd). Nature of the assay: MHC class I (H-2Kd) on tumor by flow cytometry (anti-PD-1 study). The assay is classed as in vivo, Balb/c mice. The settings on record: tumor on 23rd day, CD45-negative H-2Kd-positive fraction; Compound 1 5 mg/kg iv, anti-PD-1 antibody 200 μg ip. On the procedure:
1×10^6 Cells of murine colon cancer cell line CT26 (ATCC) were transplanted to the ventral flank of 48 female 6-week-old Balb/c mice. Five days later, the mice were divided into four groups. In vehicle administration group, saline was intravenously administered once a week, and 200 μg of Rat IgG2a isotype control antibody (Bioxcell) was intraperitoneally administered twice a week. In Compound 1 administration group, Compound 1 was intravenously administered in a dose of 5 mg/kg once a week, and 200 μg of Rat IgG2a isotype control antibody (Bioxcell) was intraperitoneally administered twice a week. In anti-PD-1 antibody administration group, 200 μg of anti-PD-1 antibody (Bioxcell) was intraperitoneally administered twice a week. In combination group of Compound 1 and anti-PD-1 antibody, Compound 1 was intravenously administered in a dose of 5 mg/kg once a week, and 200 μg of anti-PD-1 antibody (Bioxcell) was intraperitoneally administered twice a week. After the transplantation of the tumor cell, the tumor was picked out on the 23rd day, and a cell suspension of the tumor was prepared by using a tumor dissociation kit (Miltenyi) and a gentle macs dissociater (Miltenyi). The cell suspension was stained with fluoresceinated anti-CD45 antibody and anti-H-2Kd antibody, and H-2Kd on the cancer cell was detected as CD45-negative and H-2Kd-positive fractions by flow cytometry method.

In the case of `CCC[C@@H](CCO)Nc1nc(N)nc(C)c1Cc1ccc(CN(CC(=O)O)CC(F)(F)F)cc1OC` [Compound 1, N-{4-[(2-amino-4-{[(3S)-1-hydroxyhexan-3-yl]amino}-6-methylpyrimidin-5-yl)methyl]-3-methoxybenzyl}-N-(2,2,2-trifluoroethyl)glycine], the “ratio of effector memory T cell in CD8-positive cell” value in the assay on effector memory T cell [1] and with effector memory T cell [3] was “did not increase” each time. In addition, the “tumor-volume variation / tumor growth inhibition” value was “tumor growth inhibition was observed” in assay [2] and “not so different from that of the vehicle administration group” in assay [4]. In the assay on MHC class I (H-2Kd), the “mean fluorescent intensity (MFI) of H-2Kd” value was “not so different from that of the vehicle administration group”.
